Marks after values point to notes of the source that are not given here.
Experiments:
[1] = tested on: phenylephrine-induced allodynia in mice; assay: Phenylephrine model of transient allodynia; format: in vivo; details: maximum score 16
Experimental: (§1) In mice, it is possible to induce transient allodynia by treating mice with chemical sensitizers. An interperitoneal injection (of a 1 ml/kg volume) of phenylephrine (an alphal receptor agonist) or sulprostone (a EP1 and EP3 prostaglandin receptor agonist) will induce transient allodynia. Alternatively, an intrathecal injection of NMDA (in a 5 ul volume) will also induce transient allodynia. The injected mice are assessed for allodynia once every 5 minutes over a 15-50 min period post injection by light stroking of the flank with a paintbrush. The allodynia response was ranked as follows: 0. No response; 1, mild squeaking with attempts to move away from the paintbrush; 2, vigorous squeaking, biting at the paintbrush and strong efforts to escape. Data is expressed as the average total score for each group. (Each animal can have a maximum score of 16 over the 50-min period.) * indicates significant difference (P<0.05) relative to sulprostone, NMDA or phenylephrine-treated rats.

[2] = tested on: NMDA-induced allodynia in mice; assay: NMDA model of transient allodynia; format: in vivo; details: maximum score 16
Experimental: as §1

[3] = tested on: rats with ligated L5 and L6 spinal nerves; assay: Spinal nerve (L5/L6) ligation model of chronic pain, tactile allodynia by von Frey hairs; format: in vivo, rat; details: compared to a saline solution, 30 minutes after drug administration
[4] = tested on: sulprostone-induced allodynia in mice; assay: Sulprostone model of transient allodynia; format: in vivo
Experimental: as §1

[5] = tested on: capsaicin-induced allodynia in Sprague-Dawley rats; assay: Capsaicin model, tactile allodynia (von Frey filament); format: in vivo, rat
Experimental: Intraplantar injection of capsaicin, the active ingredient in red hot chili peppers, will induce neurogenic inflammation and transient allodynia.
Methods/subjects: Eight to ten male Sprague-Dawley rats (Charle Rivers, Sprague-Dawley, 200-300 grams) were used in these experiments. Rats received a unitlateral intradermal injection (10 ul) of capsaicin (0.1%) superficially in the mid-plantar surface of the hind paw. A successful injection was confirmed by the apperance of a bleb after intraplantar capsaicin administartion. Capsaicin, the pungent ingredient in hot peppers, has been used to produce hyperalgesia (mildly painful sensory stimuli are perceived as highly painful) in humans. When applied topically or injected into the skin, capsaicin produces burning pain, hyperalgesia to heat within the immediate vicinity of capsaicin application, and mechanical hyperalgesia within a large sorrounding (Hohmann AG, et al.). On the rat hind paw, there are no major subjective behaviour or clinical observations such as marked redness, limping, chronic licking and swelling associated with this model except for the immediate bleb formation of the given agent on the plantar surface right after the injection and as reported in the literature, short term tactile allodynia, extreme thermal […] which persist for one week.
Allodynia Assessment: Rats were placed in Plexiglas cages positioned over an elevated wire mesh platform and habituated to the testing environment for 15 to 25 min before testing. Tactile allodynia was assessed using a single von frey filament (5.18) with a bending force of 10 grams (Dixon). Tactile allodynia refers to a nocifensive behavior elicited by a light touch or innocuous (here, mechanical) stimulus and was operationally defined as a lowering of the threshold for paw withdrawal from punctate mechanical stimulation (Hohmann AG, et al.). The filaments were positioned in contact with the hind paw for a duration of 5 s or until a withdrawal response occurred and repeated 10 consecutive times. This procedure was repeated three times to obtain a total of thirty responses and then averaged. Contralateral testing was also done; no capsaicin was given. Data are presented as paw withdrawl frequency (%). * indicates significant difference (P<0.05) relative to vehicle-treated rats.

rats = assay: Rotarod motor performance; format: in vivo, rat; details: fifteen minutes post-dosing, acceleration mode 5-15 RPM, in s (unit assumed)
Excerpt: The Rotamex® 4/8 Rota-rod is a device to test the motor performance decrement, performance time, partial or complete ataxia, and the motor coordination in laboratory animals. The principle of this system is to measure the time each animal manages to maintain walking on the moving rod. Drugs or conditions that cause muscular relaxation will interfere with this coordination and agility, causing the animal to fall from a safe height to a grid below.
The animals were conditioned before performing the test. Animals were required to pass three stages of conditioning on the Rota-rod prior to inclusion in the experiment. During the first stage of conditioning, animals were required to perch on the stationary rod for 30 seconds to accustom themselves to the environment.
Rats that fail to perch for 30 seconds will fall to the grid below. The fall alone typically serves as an adequate aversive stimulus and the animals learn to stay on the perch.
In the second stage of conditioning, the animals that passed the first stage of conditioning were then allowed to walk at a constant speed of 5-rpm for 90 seconds. Any animal that fell off the rod during this trial were allowed to fall to the grid below. Animals are required to stay on the rod for 90 seconds in three consecutive trials out of six total trials, or else they were excluded from the study.
In the final stage of conditioning, about 10-30 minutes after the last trial for each animal that passed the first two stages of conditioning, the animals were placed back on the rod in groups of four and allowed to run in an acceleration mode with a start speed of 5 rpm and an end speed of 15 rpm for 90 seconds. […] A mean performance time was calculated for all animals that managed to stay on the rotating rod for at least 80 seconds. […] Mean performance times were calculated and used as pre-drug baseline values. […] Fifteen minutes post-dosing, the animals were placed back on the rod and the mean performance time in acceleration mode (5-15 RPM) is measured again. […]

Sprague-Dawley rats = assay: Activity monitor (locomotor activity); format: in vivo, rat; details: 10 mg/kg intraperitoneal, thirty minutes after injection
Experimental: Locomotor activity of male Sprague-Dawley rats (Charles River, Wilmington, Mass.) weighing approximately 300 grams was measured thirty minutes following intraperitoneal injection of vehicle or test compound. Test animals were placed in a dark chamber and a Digicom analyzer (Omnitech Electronic, Columbus, Ohio), which records the number of interruptions of an array of 32 photoelectric beams in the X and Y orientation, quantitated exploratory behavior during a five-minute period. Horizonal activity (HD) and total distance (TD) are presented, as well as % vehicle values. * indicates significant difference (P<0.05) relative to vehicle-treated rats.

[6] = tested on: ryanodine receptor-channel complex; details: See Biochemistry 2001, 40, 531-542; cited from earlier work

Question: With `CNC[C@H](O)c1cccc(O)c1` [PE, phenylephrine] as the molecule, how does the Mean pain score ([1]; PE 100 ng/kg alone) read?
Answer: 11.3 ± 0.9

Question: Which Mean pain score ([2]; NMDA 100 ng intrathecal alone) does the source give for `CN[C@H](CC(=O)O)C(=O)O` [NMDA] here?
Answer: 14.2 ± 1.1

Question: What does the source list for `O=C1CN(N=Cc2ccc(-c3ccc([N+](=O)[O-])cc3)o2)C(=O)N1` [Dantrolene, 1-[[5-(p-Nitrophenyl)furfurylidene]amino]hydantoin]?
Answer: reversal of allodynic pain (tactile allodynia) ([3]; i.p. 300 ng/kg): reverses the allodynic pain; reversal of allodynic pain (tactile allodynia) ([3]; i.p. 3000 ng/kg): reverses the allodynic pain; reversal of allodynic pain (tactile allodynia) ([3]; i.p. 100 mg/kg): reverses the allodynic pain; reversal of allodynic pain (tactile allodynia) ([3]; i.p. dose of 100 ng/kg): reverses the allodynic pain; Mean pain score ([4]; Sulprostone 300 ng/kg + Dantrolene 3 mg/kg, maximum score 16): 12.6 ± 1.5; Mean pain score ([4]; Sulprostone 300 ng/kg + Dantrolene 10 mg/kg, maximum score 16): 9.5 ± 1.9*; Mean pain score ([4]; Sulprostone 300 ng/kg + Dantrolene 20 mg/kg, maximum score 16): 4.8 ± 0.9*; Mean pain score ([1]; PE 100 ng/kg + Dantrolene 3 mg/kg): 9.4 ± 1.6; Mean pain score ([1]; PE 100 ng/kg + Dantrolene 10 mg/kg): 6.5 ± 1.2*; Mean pain score ([2]; NMDA 100 ng + Dantrolene 3 mg/kg): 9.3 ± 0.8*; Mean pain score ([2]; NMDA 100 ng + Dantrolene 10 mg/kg): 7.0 ± 1.0*; paw withdrawl frequency ([5]; Injected paw, 15 min after capsaicin, dantrolene 3 mg/kg IP 30 minutes before capsaicin): 36 ± 3.7%; paw withdrawl frequency ([5]; Injected paw, 30 min after capsaicin, dantrolene 3 mg/kg IP 30 minutes before capsaicin): 8 ± 1.7 * %; paw withdrawl frequency ([5]; Injected paw, 60 min after capsaicin, dantrolene 3 mg/kg IP 30 minutes before capsaicin): 7 ± 2.1%; paw withdrawl frequency ([5]; Injected paw, Baseline before Caps., dantrolene 3 mg/kg IP): 7 ± 0.9%; paw withdrawl frequency ([5]; Uninjected paw, 15 min., dantrolene 3 mg/kg IP): 5 ± 1.1%; paw withdrawl frequency ([5]; Uninjected paw, 30 min., dantrolene 3 mg/kg IP): 2 ± 1.1%; paw withdrawl frequency ([5]; Uninjected paw, 60 min., dantrolene 3 mg/kg IP): 3 ± 1.3%; paw withdrawl frequency ([5]; Uninjected paw, Baseline, dantrolene 3 mg/kg IP): 5 ± 1%; Mean time on bar (rats; 3 mg/kg IP): 74.33 ± 7.47; Mean time on bar (rats; 10 mg/kg IP): 79.67 ± 5.43; Mean time on bar (rats; 20 mg/kg IP): 37.67 ± 10.4*; HA % vehicle (Sprague-Dawley rats): 82.4%; TD % vehicle (Sprague-Dawley rats): 59.4%; HA (horizontal activity) (Sprague-Dawley rats; five-minute period): 1125.6 ± 114.5; TD (total distance) (Sprague-Dawley rats; five-minute period): 290 ± 48.4; action on ryanodine receptor-channel complex [6]: antagonist of the ryanodine receptor-channel complex

Question: For `CS(=O)(=O)NC(=O)CCC/C=C\C[C@H]1C(=O)C[C@@H](O)[C@@H]1/C=C/[C@@H](O)COc1ccccc1` [Sulprostone], which Mean pain score ([4]; Sulprostone (I.P) 300 ng/kg alone, total score, maximum 16) is on record?
Answer: 14.0 ± 0.5

From patent publication US20070066638A1, “RYANODINE RECEPTOR BLOCKERS FOR TREATING PAIN” (priority 2005, published 2007)
